Reference: paper PMC9727977, “Pharmacokinetics and pharmacodynamics of bioactive compounds in Penyanqing preparation in THP-1 inflammatory cells induced by Lipopolysaccharide” (BMC Complementary Medicine and Therapies, 2022)
Where two headings read alike, the source gives them in different places.

Legend:
[1] = Stability of the analytes in rat plasma QC samples under different storage conditions; type: in vitro ADME
Method: QC samples were […], 50, 125, 400 ng/mL for FE, 20, 100, 400 ng/mL for PRO, 100, 200, 500 ng/mL for CH, 100, 200, 500 ng/mL for PE, 200, 400, 800 ng/mL for SAB respectively. All the stock solutions, working solutions and QC samples were stored at 4 ℃ until use. […] The stability of all QC samples was determined by the freshly calibration curve.

[2] = Pharmacokinetics of six compounds in rat plasma after oral administration of PYQ (HPLC-MS/MS); type: in vivo, Sprague–Dawley rats; conditions: for AUC(0-t) / AUC(0-∞) / AUC(0-inf): non-compartmental; for CL/F: n = 6, read-out: CLz/F (converted); for Vd/F: n = 6, read-out: Vz/F; for MRT: read-out: mean residence time (MRT)
Method: Animal experiments referred to our previous manuscript. Female Sprague–Dawley rats (n = 10), weighing 200 ± 20 g, were purchased from the Experimental Animal Center of Southern Medical University (Guangzhou, China). These rats were kept adaptively for one week before the experiment, with a temperature of 23 ± 2 ℃, humidity of 40 ± 5%, 12 h light/dark cycle, and random-fed with water and food available. The rats were fasted overnight before administration.
In our previous study, three different doses (5, 10, and 20 mL/kg/day) of PYQ were used to explore the pharmacodynamic effects of it. According to the clinical dose, the PYQ was orally administered to rats at a dose of 8 mL/kg in this experiment. The plasma of 500 µL was obtained via the retinal venous plexus at 0.083, 0.25, 0.5, 0.75, 1, 2, 4, 8, 12 and 24 h after gavage administration. Then all samples were centrifuged at 4 ℃ for 5 min at 8,000 rpm, and were stored at -80 ℃ in refrigerator until further analysis.
For the pharmacokinetic study of PRO, PE, AST, FE, and CH, 100 µL plasma sample was mixed with 10 µL internal standard (IS, 2 µg/mL naringin), and 700 µL methanol was added for protein sedimentation. The mixture was vortexed for 6 min and centrifuged at 13, 000 rpm for 15 min at 4 ℃. Next, the supernatant was dried in a vacuum drying oven and vortexed with 100 µL of 50% methanol for 6 min, and then the mixture was centrifuged at 13, 000 rpm for 30 min at 4 ℃, and the supernatant was filtered by 0.22 µM filter membrane for HPLC–MS/MS analysis.
For the pharmacokinetic study of SAB, 100 µL plasma was mixed with 10 µL IS (2 µg/mL naringin) and then acidified by mixing with 25 µL of 20% hydrochloric acid. After addition of 1 mL of ethyl acetate, the mixture was vortexed for 6 min and centrifuged at 13,000 rpm for 15 min. The organic layer was transferred to an Eppendorf tube and dried in a vacuum drying oven. The residue was dissolved in 100 µL methanol. After centrifugation at 13,000 rpm for 30 min, the supernatant was filtered by 0.22 µM filter membrane for HPLC–MS/MS analysis.
In this study, the negative ESI multiple reaction monitoring (MRM) mode of AB Sciex API-4000 LC–MS/MS Systems was used to measure SAB, PRO, PE, AST, FE, and CH in rat plasma, respectively. The following setups of the analyzers were used: the temperatures were all 500 ℃; GS1, 55 psi; GS2, 55 psi; curtain gas, 10 psi.
For the chromatographic analysis of PRO, PE, AST, FE, and CH, the chromatographic column used was Agilent Poroshell 120 EC-C18 (100 mm × 3.0 mm, 2.7 µm), and the column temperature was maintained at 25 ℃. The mobile phase was consisted of A (methanol) and B (0.2% aqueous formic acid), and the flow rate was 0.4 mL/min. The gradient elution was carried out as follows: 10% A at 0 ~ 1 min, 10% A-95% A at 1 ~ 2 min, 95% A at 2 ~ 5 min, 95% A-10% A at 5 ~ 5.1 min, 10% A at 5.1 ~ 6 min. 5 µL sample was injected into the system for analysis.
For the chromatographic analysis of SAB, the chromatographic column used was ZORBAX SB-C18 (100 mm × 2.1 mm, 3.5 µm), and the column temperature was maintained at 25 ℃. The mobile phase was consisted of A (methanol) and B (0.2% aqueous formic acid), and the flow rate was 0.4 mL/min. The gradient elution was carried out as follows: 30% A at 0 ~ 0.5 min, 30% A-90% A at 0.5 ~ 1 min, 90% A at 1 ~ 4.5 min, 90% A-30% A at 4.5 ~ 4.6 min, 30% A at 4.6 ~ 6 min. 5 µL sample was injected into the system for analysis.
The pharmacokinetic parameters were calculated by non-compartmental model of the DAS 2.0 software package. The data were presented as mean ± standard deviation (SD). Statistical calculations were performed using SPSS statistical software, and a value of p < 0.05 was denoted statistically significant difference.

[3] = high QC level, nominal ng/mL: AST 500, FE 400, PRO 400, CH 500, PE 500, SAB 800, n = 6
[4] = low QC level, nominal ng/mL: AST 100, FE 50, PRO 20, CH 100, PE 100, SAB 200, n = 6
[5] = middle QC level, nominal ng/mL: AST 200, FE 125, PRO 100, CH 200, PE 200, SAB 400, n = 6
[6] = PYQ orally 8 mL/kg, mean ± SD, n = 6
[7] = female, Sprague-Dawley, po, PYQ orally 8 mL/kg, mean ± SD
[8] = female, Sprague-Dawley, po, PYQ orally 8 mL/kg, mean ± SD, n = 6, read-out: Cmax
[9] = female, Sprague-Dawley, po, PYQ orally 8 mL/kg, mean ± SD, n = 6, read-out: tmax
[10] = female, Sprague-Dawley, po, PYQ orally 8 mL/kg, mean ± SD, n = 6
[11] = female, Sprague-Dawley, po, PYQ orally 8 mL/kg, mean ± SD, n = 6, read-out: AUC(0-t)
[12] = female, Sprague-Dawley, po, after PYQ administration

For salvianolic acid B [SAB], the “In 56 ℃ for 1 h measured value” [1, 3] was 791.11 ± 5.98, the “Room temperature 24 h measured value” [1, 3] was 792.27 ± 3.94 and the “Three freeze-thaw cycles measured value” [1, 3] was 790.71 ± 3.52. The “In 56 ℃ for 1 h measured value” [1, 4] was 196.22 ± 3.40, the “Room temperature 24 h measured value” [1, 4] was 208.88 ± 8.46 and the “Three freeze-thaw cycles measured value” [1, 4] was 194.10 ± 8.56. The “In 56 ℃ for 1 h measured value” [1, 5] was 395.20 ± 10.70, the “Room temperature 24 h measured value” [1, 5] was 391.06 ± 6.16 and the “Three freeze-thaw cycles measured value” [1, 5] was 388.99 ± 6.75. For the same molecule, the CLz/F [2, 6] was 91.3 ± 11.3 mL/min/kg, the Cmax [2, 6] was 1590 ± 330 ng/mL and the Tmax [2, 6] was 0.29 ± 0.10 h. The Vz/F [2, 6] was 59.83 ± 25.48 L/kg, the t1/2 [2, 6] was 7.60 ± 3.34 h and the “AUC(0-t)” value [2, 6] was 3400 ± 450 ng·h/mL. For the same molecule, the “AUC(0-∞)” value [2, 6] was 3700 ± 460 ng·h/mL and the “mean residence time (MRT)” value ([2]; after PYQ administration) was 5.67 ± 0.66 h.

With C[C@@]12C[C@@]3(O)O[C@@H](O1)[C@]1(COC(=O)c4ccccc4)[C@H]3C[C@@]12O[C@@H]1O[C@H](CO)[C@@H](O)[C@H](O)[C@H]1O [PE, paeoniflorin] the “In 56 ℃ for 1 h measured value” [1, 3] was 495.87 ± 6.50, the “Room temperature 24 h measured value” [1, 3] was 499.23 ± 2.58 and the “Three freeze-thaw cycles measured value” [1, 3] was 492.85 ± 7.60. The “In 56 ℃ for 1 h measured value” [1, 4] was 95.32 ± 1.06, the “Room temperature 24 h measured value” [1, 4] was 99.44 ± 2.43 and the “Three freeze-thaw cycles measured value” [1, 4] was 99.68 ± 2.83. The “In 56 ℃ for 1 h measured value” [1, 5] was 196.25 ± 4.08, the “Room temperature 24 h measured value” [1, 5] was 199.64 ± 2.59 and the “Three freeze-thaw cycles measured value” [1, 5] was 197.55 ± 3.60. It also gave a t1/2 [2, 6] of 2.37 ± 0.20 h, a CL/F [2, 7] of 153 mL/min/kg and a Cmax [2, 8] of 2040 ± 590 ng/mL. The Vd/F [2, 7] was 31.3 ± 4.08 L/kg, the Tmax [2, 9] was 0.25 h and the AUC(0-inf) [2, 10] was 2220 ± 310 ng·h/mL. It also gave an AUC(0-t) [2, 11] of 2210 ± 310 ng·h/mL and an MRT [2, 12] of at most 3 h.

In the case of COc1cc(/C=C/C(=O)O)ccc1O [FE, ferulic acid], the “In 56 ℃ for 1 h measured value” [1, 3] is reported as 399.13 ± 3.26, the “Room temperature 24 h measured value” [1, 3] is reported as 403.59 ± 7.84 and the “Three freeze-thaw cycles measured value” [1, 3] is reported as 400.59 ± 6.95. For the same molecule, the “In 56 ℃ for 1 h measured value” [1, 4] was 48.33 ± 2.76, the “Room temperature 24 h measured value” [1, 4] was 49.14 ± 2.35 and the “Three freeze-thaw cycles measured value” [1, 4] was 49.41 ± 1.85. The “In 56 ℃ for 1 h measured value” [1, 5] was 123.42 ± 1.76, the “Room temperature 24 h measured value” [1, 5] was 122.72 ± 2.65 and the “Three freeze-thaw cycles measured value” [1, 5] was 124.36 ± 2.46. The Tmax [2, 6] was 0.25 ± 0 h, the half-life [2, 10] was 0.9 ± 0.02 h and the CL/F [2, 7] was 230 mL/min/kg. For the same molecule, the Cmax [2, 8] was 1200 ± 150 ng/mL, the Vd/F [2, 7] was 17.9 ± 3.28 L/kg and the AUC(0-inf) [2, 10] was 1480 ± 240 ng·h/mL. The AUC(0-t) [2, 11] was 1430 ± 230 ng·h/mL and the MRT [2, 12] was at most 3 h.

In the case of O=C(/C=C/c1ccc(O)c(O)c1)O[C@@H]1C[C@](O)(C(=O)O)C[C@@H](O)[C@H]1O [CH, chlorogenic acid], the “In 56 ℃ for 1 h measured value” [1, 3] is reported as 489.60 ± 8.91, the “Room temperature 24 h measured value” [1, 3] is reported as 499.00 ± 6.02 and the “Three freeze-thaw cycles measured value” [1, 3] is reported as 485.90 ± 9.73. For the same molecule, the “In 56 ℃ for 1 h measured value” [1, 4] was 97.22 ± 3.31, the “Room temperature 24 h measured value” [1, 4] was 99.91 ± 2.94 and the “Three freeze-thaw cycles measured value” [1, 4] was 98.55 ± 2.93. The “In 56 ℃ for 1 h measured value” [1, 5] was 195.56 ± 7.88, the “Room temperature 24 h measured value” [1, 5] was 200.03 ± 9.56 and the “Three freeze-thaw cycles measured value” [1, 5] was 191.77 ± 8.91. The Cmax [2, 6] was 1370 ± 60 ng/mL, the “AUC(0-∞)” value [2, 6] was 940 ± 90 ng·h/mL and the half-life [2, 10] was 1.86 ± 0.21 h. It also gave a CL/F [2, 7] of 356 mL/min/kg, a Vd/F [2, 7] of 57.2 ± 7.48 L/kg and an AUC(0-t) [2, 11] of 920 ± 60 ng·h/mL. For the same molecule, the MRT [2, 12] was at most 3 h.

In the case of O=Cc1ccc(O)c(O)c1 [PRO, protocatechualdehyde], the “In 56 ℃ for 1 h measured value” [1, 3] is reported as 394.26 ± 8.01, the “Room temperature 24 h measured value” [1, 3] is reported as 398.27 ± 4.21 and the “Three freeze-thaw cycles measured value” [1, 3] is reported as 395.66 ± 7.14. For the same molecule, the “In 56 ℃ for 1 h measured value” [1, 4] was 19.88 ± 0.43, the “Room temperature 24 h measured value” [1, 4] was 20.81 ± 0.85 and the “Three freeze-thaw cycles measured value” [1, 4] was 20.62 ± 1.06. For the same molecule, the “In 56 ℃ for 1 h measured value” [1, 5] was 98.21 ± 2.33, the “Room temperature 24 h measured value” [1, 5] was 100.34 ± 1.48 and the “Three freeze-thaw cycles measured value” [1, 5] was 97.77 ± 2.49. For the same molecule, the Tmax ([2]; female, Sprague-Dawley, in vivo, po, PYQ orally 8 mL/kg, mean ± SD, n = 6, read-out: tmax) was 0.25 h, the half-life [2, 10] was 0.93 ± 0.06 h and the CL/F [2, 7] was 310 mL/min/kg. For the same molecule, the Cmax [2, 8] was 1430 ± 220 ng/mL, the Vd/F [2, 7] was 24.9 ± 1.96 L/kg and the AUC(0-inf) [2, 10] was 1080 ± 70 ng·h/mL. For the same molecule, the AUC(0-t) [2, 11] was 1050 ± 60 ng·h/mL and the MRT [2, 12] was at most 3 h.

In the case of C[C@@H]1O[C@@H](O[C@H]2C(=O)c3c(O)cc(O)cc3O[C@@H]2c2ccc(O)c(O)c2)[C@H](O)[C@H](O)[C@H]1O [AST, astilbin], the “In 56 ℃ for 1 h measured value” [1, 3] is reported as 495.21 ± 8.43, the “Room temperature 24 h measured value” [1, 3] is reported as 498.07 ± 3.95 and the “Three freeze-thaw cycles measured value” [1, 3] is reported as 497.15 ± 6.61. For the same molecule, the “In 56 ℃ for 1 h measured value” [1, 4] was 98.46 ± 2.77, the “Room temperature 24 h measured value” [1, 4] was 99.68 ± 2.31 and the “Three freeze-thaw cycles measured value” [1, 4] was 97.89 ± 4.06. The “In 56 ℃ for 1 h measured value” [1, 5] was 194.85 ± 6.53, the “Room temperature 24 h measured value” [1, 5] was 199.01 ± 3.99 and the “Three freeze-thaw cycles measured value” [1, 5] was 193.37 ± 7.61. The half-life [2, 10] was 3.42 ± 0.34 h, the CL/F [2, 7] was 159 mL/min/kg and the Cmax [2, 8] was 2270 ± 350 ng/mL. It also gave a Vd/F [2, 7] of 45.4 ± 6.31 L/kg, a Tmax [2, 9] of 0.25 h and an AUC(0-inf) [2, 10] of 2090 ± 200 ng·h/mL. For the same molecule, the AUC(0-t) [2, 11] was 2080 ± 200 ng·h/mL and the MRT [2, 12] was at most 3 h.
